Laboratory results as given in patent US4873240A, “Method for administering ethanolamine derivatives to livestock” (Beecham Group p.l.c., priority 1985, dated 1989).

Assays:
[1] = Weight gain, food intake and body composition of normal lean mice dosed for 28 days; assay type: in vivo, female C57Bl/6 normal lean mice
Description: (§1) Remale C57Bl/6 genetically obese (ob/ob) or normal lean mice were fed on a powdered breeders diet and given the compounds either once daily by oral gavage, or by admixture with the diet for 28 days. Fifty parts per million (ppm) in the diet is equivalent to a dose level of about eight to ten )obese mie) or twelve to thirteen (normal mice) milligrams per kilogram body weight per dya. Body lipid content and lean body mass were determined gravimetrically. There were seven or eight mice in each treatment group and results are expressed as a percentage of values for an untreated group of similar size.

[2] = Pup weight and rectal temperature after administration to pregnant rats; assay type: in vivo, Sprague-Dawley rats; conditions: days 2-20 of gestation, mean ± S.E.M.
Description: Female Sprague-Dawley rates were mated, fed on powdered rodent diet and given compound P1 as a dietary admixture (150 ppm) from days 2-20 of gestation. Thereafter no further compound was given. Parturition occurred on day 22. The pups were weight 24 hours after birth. 48 hours after birth 7 pups were removed at random from 3 control and 3 treated litters, placed 29° C. and rectal temperature was monitored. Results are expressed as means of the number of values shown in parentheses±S.E.M.

[3] = Weight gain and food conversion efficiency of broiler chicken, 30-56 days; assay type: in vivo, Marshall sexed broiler chicken; conditions: 3 ppm in feed
Text: Marshall sexed broiler chicken, 30 days old, were fed on a basal feed, which was designed as a practical broiler and finisher feed. Additive (see below) was substituted for maize in tis diet. The supplemented diets were fed until the birds were 56 days old.

[4] = Weight gain, food intake and body composition of genetically obese (ob/ob) mice dosed for 28 days; assay type: in vivo, female C57Bl/6 genetically obese (ob/ob) mice
Description: as §1

COC(=O)COc1ccc(CC(C)NCC(O)c2cc(Cl)c(N)c(Cl)c2)cc1 (centres unmarked) [Preparation P5, N-[2-(4-carbomethoxymethoxyphenyl)-1-methylethyl]-2-hydroxy-2-(4-amino-3,5-dichlorophenyl)ethanamine]
Food Intake ([1]; 50 ppm in diet): 108 % of control values | Gain/Intake ([1]; 50 ppm in diet): 116 % of control values | Lean Body mass ([1]; 50 ppm in diet): 108 % of control values | Weight Gain ([1]; 50 ppm in diet): 125 % of control values

COC(=O)c1ccc(CC(C)NCC(O)c2ccccc2)cc1 (centres unmarked) [Preparation P1, N-[2-(4-carbomethoxyphenyl)-1-methylethyl]-2-hydroxy-2-phenylethanamine]
Weight, All pups ([2]; 150 ppm in diet of dams, 24 hours after birth, n=52, control 5.3 ± 0.1): 5.9 ± 0.1 g | Weight, Pups monitored for body temperature ([2]; 150 ppm in diet of dams, n=7, control 5.0 ± 0.1): 6.6 ± 0.4 g | Drop in rectal temperature after 10 mins @ 29° C. ([2]; pups 48 hours after birth, dams 150 ppm in diet, n=7, control 2.76 ± 0.16): 1.98 ± 0.06 | Rectal temperature after 10 mins @ 29° C. ([2]; pups 48 hours after birth, dams 150 ppm in diet, n=7, control 29.4 ± 0.4): 31.2 ± 0.5 | Weight gain 30-56 days ([3]; female, control 1309): 1326 g | Food conversion efficiency 30-56 days ([3]; female, control .329): .333 | Weight gain 30-56 days ([3]; male, control 1644): 1784 g | Food conversion efficiency 30-56 days ([3]; male, control .367): .385 | Amt. of Lipid ([4]; 50 ppm in diet): 103 % of control values | Food Intake ([4]; 50 ppm in diet): 119 % of control values | Gain/Intake ([4]; 50 ppm in diet): 168 % of control values | Lean Body mass ([4]; 50 ppm in diet): 111 % of control values | Weight Gain ([4]; 50 ppm in diet): 200 % of control values

COC(=O)c1ccc(CC(C)NCC(O)c2ccc(O)c(CO)c2)cc1 (centres unmarked) [Preparation P3]
Amt. of Lipid ([1]; 20 mg/kg po once daily): 69 % of control values | Gain/Intake ([1]; 20 mg/kg po once daily): 90 % of control values | Lean Body mass ([1]; 20 mg/kg po once daily): 113 % of control values | Weight Gain ([1]; 20 mg/kg po once daily): 171 % of control values

COC(=O)COc1ccc(CC(C)NCC(O)c2cccc(Cl)c2)cc1 (centres unmarked) [Preparation P4, N-[2-(4-carbomethoxymethoxyphenyl)-1-methylethl]-2-hydroxy-2-(3-chlorophenyl)ethanamine]
Amt. of Lipid ([4]; 0.46 ppm in diet): 105 % of control values | Food Intake ([4]; 0.46 ppm in diet): 116 % of control values | Gain/Intake ([4]; 0.46 ppm in diet): 124 % of control values | Lean Body mass ([4]; 0.46 ppm in diet): 107 % of control values | Weight Gain ([4]; 0.46 ppm in diet): 143 % of control values

COC(=O)c1ccc(CC(C)NCC(O)c2ccc(O)c(CO)c2)cc1 [Preparation P2, N-[2-(4-carbomethoxyphenyl)-L-methylethyl]-2-hydroxy-2-(4-hydroxy-3-hydroxymethylphenyl) ethanamine]
Amt. of Lipid ([1]; 75 ppm in diet): 78 % of control values | Food Intake ([1]; 75 ppm in diet): 107 % of control values | Gain/Intake ([1]; 75 ppm in diet): 120 % of control values | Lean Body mass ([1]; 75 ppm in diet): 107 % of control values | Weight Gain ([1]; 75 ppm in diet): 128 % of control values | Amt. of Lipid ([4]; 10 mg/kg po once daily): 77 % of control values | Food Intake ([4]; 10 mg/kg po once daily): 111 % of control values | Gain/Intake ([4]; 10 mg/kg po once daily): 70 % of control values | Lean Body mass ([4]; 10 mg/kg po once daily): 113 % of control values | Weight Gain ([4]; 10 mg/kg po once daily): 78 % of control values | Amt. of Lipid ([4]; 36 ppm in diet): 101 % of control values | Food Intake ([4]; 36 ppm in diet): 112 % of control values | Gain/Intake ([4]; 36 ppm in diet): 99 % of control values | Lean Body mass ([4]; 36 ppm in diet): 112 % of control values | Weight Gain ([4]; 36 ppm in diet): 111 % of control values
